Numbers after ± are expanded uncertainties.
Assays:
[1] = Liquid; for mass density: 293.15 K, 101.33 kPa, Vibrating tube method; for vapor or sublimation pressure: Ebulliometric method (Recirculating still)
[2] = refractive index (Na D-line) (dimensionless); details: 293.15 K; 101.33 kPa; Liquid; Standard Abbe refractometry
[3] = Boiling temperature at pressure P; details: Liquid, Ebulliometric method (Recirculating still)

| mass density [1] [kg/m3] | refractive index [2] | vapor or sublimation pressure ([1]; 343.15 K) [kPa] | vapor or sublimation pressure ([1]; 358.15 K) [kPa] | vapor or sublimation pressure ([1]; 363.15 K) [kPa] | Boiling temperature at pressure P ([3]; 19.9 kPa) [°C] | Boiling temperature at pressure P ([3]; 34.33 kPa) [°C] | Boiling temperature at pressure P ([3]; 39.89 kPa) [°C] | Boiling temperature at pressure P ([3]; 49.89 kPa) [°C] | Boiling temperature at pressure P ([3]; 58.58 kPa) [°C] | Boiling temperature at pressure P ([3]; 69.3 kPa) [°C] | Boiling temperature at pressure P ([3]; 79.88 kPa) [°C] | Boiling temperature at pressure P ([3]; 89.88 kPa) [°C] | Boiling temperature at pressure P ([3]; 98.88 kPa) [°C] | Structure (SMILES) |
| --- | --- | --- | --- | --- | --- | --- | --- | --- | --- | --- | --- | --- | --- | --- |
| 801.49 ± 2 | 1.3959 ± 0.0009 |  |  |  |  |  |  |  |  |  |  |  |  | CC(C)CO [2-methyl-1-propanol] |
| 805.86 ± 2 | 1.3906 ± 0.0009 | 34.4 ± 0.32 | 58.64 ± 0.39 | 69.36 ± 0.46 | 56.44 ± 0.22 | 70.32 ± 0.22 | 74.40 ± 0.19 | 80.62 ± 0.18 | 85.30 ± 0.17 | 90.4 ± 0.17 | 94.76 ± 0.17 | 98.53 ± 0.16 | 101.59 ± 0.16 | CCCC(C)=O [pentan-2-one] |

From the NIST ThermoML archive (doi:10.1021/acs.jced.8b00517)
